Data taken from patent US20240116921A1, “LACTAM (HETERO)[…] DERIVATIVES AS INHIBITORS OF ERBB2” (EnLiven Therapeutics, Inc., priority 2020, published 2024).

Experiments:
MDA-MB-175VII = test: Cell viability assay (CellTiter Glo), MDA-MB-175VII; format: cell-based; conditions: Homo sapiens; MDA MB 175VII cells, 72 hours, CellTiter Glo; read-out: IC50, cell viability, MDA MB 175VII
Experimental: (§1) Cells were treated with compounds, and cell viability was measured as a metric of kinase inhibition.
(§2) The Ba/F3 cell line is IL-3-dependent mouse cell line derived from the C3H mouse strain. Ba/F3 cell lines were engineered to express human ERBB2 or EGFR kinases, rendering the cells IL-3 independent. The lines were generated via retroviral transduction utilizing a Moloney murine leukemia virus (MMLV) promoter, and constructs are stably integrated into the cell genome. The sequences of the ERBB2 and EGFR genes used were NCBI Reference Sequences NM_004448.3 and NM_005228.3, respectively.
(§3) Similarly, Ba/F3 cell lines engineered to express EGFR, ERBB2, or ERBB2 mutants were grown, harvested, counted and seeded at 3000 cells per well in 96-well plates. A subset of wells contained media only (low control, “LC”).
(§4) Table B1 provides the growth media and number of cells seeded per well for the each cell line.
(§5) Plates were placed in a 37° C., 5% CO2 incubator for 72 hours. Plates were then removed from the incubator and equilibrated for 15 minutes at room temperature. 40 μl of CellTiter Glo reagent (Promega) was added to measure the relative level of metabolically active cells by quantifying intracellular ATP concentrations. Plates were incubated for 30 minutes at room temperature, and luminescence was measured. Percent viability was normalized to a vehicle control only using the following formula: % viability=100×(Lumsample−LumLC)/(LumHC−Lum^LC). Graphical curves were fitted using a nonlinear regression model with a sigmoidal dose response.

A431 = test: Cell viability assay (CellTiter Glo), A431; format: cell-based; conditions: Homo sapiens, A-431, A431 cells, 72 hours
Ba/F3 EGFR wt = Ba/F3 EGFR wt (Homo sapiens, UniProt P00533); test: Cell viability assay, Ba/F3 EGFR wt; format: cell-based, mouse; conditions: Ba/F3 EGFR wt cells, 72 hours, CellTiter Glo; read-out: IC50, cell viability, Ba/F3 EGFR wt
Experimental: as §1, §2, §3, §4
(§6) Plates were placed in a 37° C., 5% CO2 incubator for 72 hours. Plates were then removed from the incubator and equilibrated for 15 minutes at room temperature. 40 μl of CellTiter Glo reagent (Promega) was added to measure the relative level of metabolically active cells by quantifying intracellular ATP concentrations. Plates were incubated for 30 minutes at room temperature, and luminescence was measured. […]

[1] = biological target: Ba/F3 ERBB2-P780_Y781insGSP (Homo sapiens, UniProt P04626, DUP778-780, cells depend on it); test: Cell viability assay, Ba/F3 ERBB2-P780_Y781insGSP; format: cell-based, mouse; conditions: 72 hours, CellTiter Glo, read-out: IC50, cell viability, Ba/F3 ERBB2-P780_Y781insGSP
Sequence of Ba/F3 ERBB2-P780_Y781insGSP (P04626 with tags, fused parts or gaps DUP778-780): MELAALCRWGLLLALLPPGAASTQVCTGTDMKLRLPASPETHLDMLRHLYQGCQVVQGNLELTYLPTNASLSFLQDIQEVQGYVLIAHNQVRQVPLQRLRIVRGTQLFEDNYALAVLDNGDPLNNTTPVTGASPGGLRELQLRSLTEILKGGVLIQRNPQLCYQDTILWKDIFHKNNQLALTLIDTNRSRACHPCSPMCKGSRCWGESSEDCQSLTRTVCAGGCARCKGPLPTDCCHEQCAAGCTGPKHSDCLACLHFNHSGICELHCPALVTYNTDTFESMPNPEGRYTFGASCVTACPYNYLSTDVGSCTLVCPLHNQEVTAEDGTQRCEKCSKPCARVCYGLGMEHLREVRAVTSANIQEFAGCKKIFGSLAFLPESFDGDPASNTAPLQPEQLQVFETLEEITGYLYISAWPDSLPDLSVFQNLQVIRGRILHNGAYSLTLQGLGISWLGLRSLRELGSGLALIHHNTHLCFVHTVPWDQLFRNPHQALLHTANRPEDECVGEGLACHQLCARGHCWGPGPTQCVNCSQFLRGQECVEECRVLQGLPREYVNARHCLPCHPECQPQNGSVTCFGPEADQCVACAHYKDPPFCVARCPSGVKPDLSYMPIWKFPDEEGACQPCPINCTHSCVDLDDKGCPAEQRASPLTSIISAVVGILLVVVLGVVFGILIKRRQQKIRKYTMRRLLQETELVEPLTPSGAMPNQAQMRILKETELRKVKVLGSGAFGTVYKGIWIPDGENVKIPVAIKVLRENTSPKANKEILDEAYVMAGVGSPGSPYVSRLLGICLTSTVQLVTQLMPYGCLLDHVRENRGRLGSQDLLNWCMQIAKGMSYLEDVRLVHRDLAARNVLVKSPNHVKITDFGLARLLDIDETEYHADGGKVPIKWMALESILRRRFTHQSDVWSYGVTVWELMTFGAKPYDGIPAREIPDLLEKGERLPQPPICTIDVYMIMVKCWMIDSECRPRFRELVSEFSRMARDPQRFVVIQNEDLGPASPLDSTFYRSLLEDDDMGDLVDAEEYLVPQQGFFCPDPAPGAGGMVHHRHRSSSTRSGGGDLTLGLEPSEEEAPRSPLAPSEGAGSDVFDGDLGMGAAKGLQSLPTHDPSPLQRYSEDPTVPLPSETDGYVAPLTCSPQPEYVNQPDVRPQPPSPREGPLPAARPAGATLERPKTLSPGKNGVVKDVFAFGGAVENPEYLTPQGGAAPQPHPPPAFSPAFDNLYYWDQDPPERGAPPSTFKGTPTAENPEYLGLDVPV
Experimental: as §1, §2, §3, §4
as §5, with “Percent viability was normalized to a vehicle control only using the following formula: % viability=100×(Lumsample−LumLC)/(LumHC−Lum^LC).” left out

Ba/F3 ERBB2-V777L = Ba/F3 ERBB2-V777L (Homo sapiens, UniProt P04626, V777L, cells depend on it); test: Cell viability assay, Ba/F3 ERBB2-V777L; format: cell-based, mouse; conditions: 72 hours, CellTiter Glo, read-out: IC50, cell viability, Ba/F3 ERBB2-V777L
Sequence of Ba/F3 ERBB2-V777L (P04626 whole entry V777L): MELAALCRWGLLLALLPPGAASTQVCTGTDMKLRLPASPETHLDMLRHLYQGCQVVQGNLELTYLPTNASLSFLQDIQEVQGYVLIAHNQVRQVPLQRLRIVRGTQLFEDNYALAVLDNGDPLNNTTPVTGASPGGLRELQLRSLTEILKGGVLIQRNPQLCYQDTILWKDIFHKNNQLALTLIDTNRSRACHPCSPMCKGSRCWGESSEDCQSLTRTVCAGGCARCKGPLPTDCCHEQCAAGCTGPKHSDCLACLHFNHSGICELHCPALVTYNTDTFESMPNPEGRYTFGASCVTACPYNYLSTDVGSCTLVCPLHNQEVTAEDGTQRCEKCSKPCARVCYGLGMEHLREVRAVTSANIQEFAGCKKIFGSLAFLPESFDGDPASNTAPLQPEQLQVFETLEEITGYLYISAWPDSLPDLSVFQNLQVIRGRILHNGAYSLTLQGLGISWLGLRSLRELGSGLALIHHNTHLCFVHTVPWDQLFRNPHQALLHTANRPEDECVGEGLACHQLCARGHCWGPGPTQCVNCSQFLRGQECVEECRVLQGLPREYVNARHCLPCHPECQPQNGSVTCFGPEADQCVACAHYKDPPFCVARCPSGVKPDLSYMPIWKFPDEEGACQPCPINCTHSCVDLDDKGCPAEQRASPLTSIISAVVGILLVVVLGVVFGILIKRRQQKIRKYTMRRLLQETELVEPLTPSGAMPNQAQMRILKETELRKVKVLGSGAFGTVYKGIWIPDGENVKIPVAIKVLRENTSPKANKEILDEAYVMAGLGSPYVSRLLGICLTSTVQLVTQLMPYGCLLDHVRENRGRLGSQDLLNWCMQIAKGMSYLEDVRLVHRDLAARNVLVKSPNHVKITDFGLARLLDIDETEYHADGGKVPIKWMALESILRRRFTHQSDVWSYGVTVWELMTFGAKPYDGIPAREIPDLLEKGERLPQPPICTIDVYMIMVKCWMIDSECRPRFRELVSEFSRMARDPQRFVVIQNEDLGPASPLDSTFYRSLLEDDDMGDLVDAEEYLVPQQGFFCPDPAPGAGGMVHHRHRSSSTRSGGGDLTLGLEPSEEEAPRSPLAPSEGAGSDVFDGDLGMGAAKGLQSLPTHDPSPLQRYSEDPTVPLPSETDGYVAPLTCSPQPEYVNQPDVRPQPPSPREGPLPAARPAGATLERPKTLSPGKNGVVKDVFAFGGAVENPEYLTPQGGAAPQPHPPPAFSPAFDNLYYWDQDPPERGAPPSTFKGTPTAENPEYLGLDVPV
Experimental: as §1, §2, §3, §4, §5

Ba/F3 ERBB2-L869R = Ba/F3 ERBB2-L869R (Homo sapiens, UniProt P04626, L869R, cells depend on it); test: Cell viability assay, Ba/F3 ERBB2-L869R; format: cell-based, mouse; conditions: 72 hours, CellTiter Glo, read-out: IC50, cell viability, Ba/F3 ERBB2-L869R
Sequence of Ba/F3 ERBB2-L869R (P04626 whole entry L869R): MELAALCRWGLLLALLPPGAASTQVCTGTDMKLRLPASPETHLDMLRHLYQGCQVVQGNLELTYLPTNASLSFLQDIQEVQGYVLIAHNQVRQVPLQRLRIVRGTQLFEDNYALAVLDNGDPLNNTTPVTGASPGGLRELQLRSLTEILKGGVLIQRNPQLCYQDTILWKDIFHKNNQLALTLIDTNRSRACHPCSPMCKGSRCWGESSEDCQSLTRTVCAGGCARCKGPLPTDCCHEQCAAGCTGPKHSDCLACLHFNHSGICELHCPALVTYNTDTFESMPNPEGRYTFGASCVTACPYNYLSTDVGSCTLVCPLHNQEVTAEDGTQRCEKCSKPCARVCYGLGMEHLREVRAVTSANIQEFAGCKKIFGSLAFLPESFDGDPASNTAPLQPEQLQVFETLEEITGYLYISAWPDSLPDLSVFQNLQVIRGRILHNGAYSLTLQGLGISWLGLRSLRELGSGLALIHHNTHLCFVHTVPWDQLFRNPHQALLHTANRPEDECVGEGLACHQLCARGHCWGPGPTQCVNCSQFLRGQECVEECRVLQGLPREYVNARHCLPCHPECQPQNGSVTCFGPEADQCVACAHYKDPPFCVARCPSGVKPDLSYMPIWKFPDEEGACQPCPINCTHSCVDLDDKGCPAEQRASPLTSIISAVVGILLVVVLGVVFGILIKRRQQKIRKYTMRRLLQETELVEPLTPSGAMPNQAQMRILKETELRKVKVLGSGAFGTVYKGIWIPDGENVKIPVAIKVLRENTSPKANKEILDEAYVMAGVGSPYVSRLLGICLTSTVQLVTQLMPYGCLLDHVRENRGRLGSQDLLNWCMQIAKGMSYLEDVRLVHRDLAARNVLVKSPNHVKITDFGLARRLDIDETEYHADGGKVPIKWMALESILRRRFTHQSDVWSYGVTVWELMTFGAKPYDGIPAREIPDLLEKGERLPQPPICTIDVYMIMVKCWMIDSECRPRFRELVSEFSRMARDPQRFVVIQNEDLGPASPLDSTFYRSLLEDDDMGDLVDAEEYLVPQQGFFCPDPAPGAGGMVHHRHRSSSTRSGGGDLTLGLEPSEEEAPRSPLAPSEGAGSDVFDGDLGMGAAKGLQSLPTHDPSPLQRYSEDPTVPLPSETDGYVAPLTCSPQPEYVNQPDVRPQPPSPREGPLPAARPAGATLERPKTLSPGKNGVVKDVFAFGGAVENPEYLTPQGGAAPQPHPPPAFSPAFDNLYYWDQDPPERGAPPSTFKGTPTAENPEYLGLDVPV
Experimental: as §1, §2, §3, §4, §5

[2] = biological target: BaF3-EGFR-V769_D770insASV (Homo sapiens, UniProt P00533, DUP767-769, cells depend on it); test: Cell viability assay, BaF3-EGFR-V769_D770insASV; format: cell-based, mouse; conditions: 72 hours, CellTiter Glo, read-out: IC50, cell viability, BaF3-EGFR-V769_D770insASV
Experimental: as §1, §2, §3, §4, §6

[3] = biological target: BaF3_EGFR-D770-N771insSVD (Homo sapiens, UniProt P00533, DUP768-770, cells depend on it); test: Cell viability assay, BaF3_EGFR-D770-N771insSVD; format: cell-based, mouse; conditions: 72 hours, CellTiter Glo, read-out: IC50, cell viability, BaF3_EGFR-D770-N771insSVD
Experimental: as §1, §2, §3, §4, §6

[4] = biological target: BaF3_EGFR-H773_V774insNPH (Homo sapiens, UniProt P00533, DUP771-773, cells depend on it); test: Cell viability assay, BaF3_EGFR-H773_V774insNPH; format: cell-based, mouse; conditions: 72 hours, CellTiter Glo, read-out: IC50, cell viability, BaF3_EGFR-H773_V774insNPH
Experimental: as §1, §2, §3, §4, §6

[5] = biological target: T1, phosphorylated EGFR (pEGFR) (Homo sapiens, UniProt P00533); test: Detection of phosphorylated EGFR (pEGFR) in EGF-stimulated A431 cells; format: cell-based; conditions: A431 cells (10% FBS), 4 hours incubation, EGF 30 ng/mL 10 minutes, AlphaLISA
T1 construct: performed to measure phosphorylated EGFR levels using A431 cells (10% FBS); endogenous in cells; host or cells: A431
T1 sequence (P00533 25-1210): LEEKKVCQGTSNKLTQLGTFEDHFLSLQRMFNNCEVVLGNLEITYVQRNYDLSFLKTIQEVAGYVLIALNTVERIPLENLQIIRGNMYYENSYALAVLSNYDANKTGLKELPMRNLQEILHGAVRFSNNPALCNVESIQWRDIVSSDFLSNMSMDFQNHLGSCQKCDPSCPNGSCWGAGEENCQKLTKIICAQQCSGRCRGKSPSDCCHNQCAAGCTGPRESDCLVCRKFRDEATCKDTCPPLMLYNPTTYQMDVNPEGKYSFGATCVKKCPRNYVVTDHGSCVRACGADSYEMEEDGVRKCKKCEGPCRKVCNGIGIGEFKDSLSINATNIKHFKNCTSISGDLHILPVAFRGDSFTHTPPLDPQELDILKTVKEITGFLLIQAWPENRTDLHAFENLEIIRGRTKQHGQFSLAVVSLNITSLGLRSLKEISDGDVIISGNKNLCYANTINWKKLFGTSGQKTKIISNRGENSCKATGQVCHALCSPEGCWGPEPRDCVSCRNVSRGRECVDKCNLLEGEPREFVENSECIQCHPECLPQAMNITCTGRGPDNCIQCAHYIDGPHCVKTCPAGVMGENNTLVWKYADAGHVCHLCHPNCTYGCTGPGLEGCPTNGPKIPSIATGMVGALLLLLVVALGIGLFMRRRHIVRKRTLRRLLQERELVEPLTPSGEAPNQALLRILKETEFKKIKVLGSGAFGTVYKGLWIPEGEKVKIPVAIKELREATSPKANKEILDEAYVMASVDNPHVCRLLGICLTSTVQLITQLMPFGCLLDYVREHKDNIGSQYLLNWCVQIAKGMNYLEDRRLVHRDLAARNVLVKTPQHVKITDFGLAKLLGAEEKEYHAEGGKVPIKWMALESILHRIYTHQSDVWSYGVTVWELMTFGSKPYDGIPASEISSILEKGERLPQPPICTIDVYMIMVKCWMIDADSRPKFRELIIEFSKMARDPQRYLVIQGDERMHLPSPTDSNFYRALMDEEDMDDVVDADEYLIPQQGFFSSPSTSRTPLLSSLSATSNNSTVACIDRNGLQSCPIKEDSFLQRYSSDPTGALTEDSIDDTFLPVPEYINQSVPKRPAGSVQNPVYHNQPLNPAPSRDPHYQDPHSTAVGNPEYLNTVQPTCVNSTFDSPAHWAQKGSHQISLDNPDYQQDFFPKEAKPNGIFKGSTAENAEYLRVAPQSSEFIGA
How it was run: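 A431 cells in 10% FBS were preincubated with compound for 4 h at 37 °C, then stimulated with EGF (30 ng/mL final) for 10 min. pEGFR in lysates was read by AlphaLISA. % inhibition was calculated against DMSO and staurosporine-treated controls, and IC50 came from a four-parameter curve fit.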

| IC50 (MDA-MB-175VII) | IC50 (A431) | IC50 [5] | SMILES | GI50 (Ba/F3 EGFR wt) | GI50 [1] | GI50 (Ba/F3 ERBB2-V777L) | GI50 (Ba/F3 ERBB2-L869R) | GI50 [2] | GI50 [3] | GI50 [4] |
| --- | --- | --- | --- | --- | --- | --- | --- | --- | --- | --- |
| 0.015 µM | 5.8 µM | 1.23 µM | C=C1CCN(c2ccc3ncnc(Nc4ccc(Oc5ccn6ncnc6c5)c(C)c4)c3c2)C1=O [Compound 1, 1-[4-[(3-methyl-4-[[1,2,4]triazolo[1,5-a]pyridin-7-yloxy]phenyl)amino]quinazolin-6-yl]-3-methylidenepyrrolidin-2-one] | > 10 µM | 0.0034 µM | 0.00041 µM | 0.0036 µM | 4.51 µM | 4.06 µM | 9.83 µM |
| – | 1.28 µM | 0.205 µM | C=C1CCN(c2ccc3ncnc(Nc4ccc(Oc5ccn6ccnc6c5)c(C)c4)c3c2)C1=O [Compound 4, 1-[4-[(4-[imidazo[1,2-a]pyridin-7-yloxy]-3-methylphenyl)amino]quinazolin-6-yl]-3-methylidenepyrrolidin-2-one] | – | 0.0026 µM | 0.0013 µM | 0.0048 µM | – | – | – |
